Source: patent publication US6632630B2, “Monooxygenase assays” (Aclara Biosciences, Inc., priority 2000, dated 2003)

Assay: Solubility in water
Assay type: physicochemical

- solubility in water: very limited solubility
Compound: O=c1ccc2nc3ccc(OCc4ccccc4)cc3oc-2c1 [7-BR, 7-benzyloxyresorufin]
